Source: patent EP0804400B1, “HYDROFORMYLATION OF A MULTI-COMPONENT FEED STREAM” (ExxonMobil Research and Engineering Company, priority 1995, dated 1996)
Like-named read-outs stand apart in the source and are kept apart here.

Experiments:
[1] = 0.1 MPa partial pressure
Method: (§1) In the autoclave experiments the solvent was thoroughly degassed in the autoclave before the gas was charged without stirring. After a short temperature equilibration the pressure and temperature in the autoclave was recorded and then the solvent was stirred until no further pressure drop could be observed. From the known gas volume and pressure drop the amount of dissolved gas was calculated. In the ^1H NMR experiments either the solvent (propanal) or hexamethylbenzene served as an internal standard.

[2] = 0.1 MPa partial pressure, 22 °C; for Xi x 10^4: mol fraction; for Ci: molarity
Method: as §1

[3] = cited from earlier work; for Xi x 10^4: mol fraction; for Ci: molarity
[4] = mol fraction of gas in liquid phase, solvent Tetraglyme containing 7.8 w.% PPh3, 20 °C
[5] = mol fraction, solvent Tetraglyme containing 7.8 w.% PPh3, 100 °C
[6] = molarity of gas in liquid phase, solvent Tetraglyme containing 7.8 w.% PPh3, 20 °C
[7] = molarity, solvent Tetraglyme containing 7.8 w.% PPh3, 100 °C
[8] = solvent 2-Methylbutanal, 30 °C, ref. e
[9] = solvent 2-Methylbutanal, 100 °C, ref. e
[10] = solvent Formaldehyde diethyl acetal, 30 °C, ref. g
[11] = solvent 1-Butyl acetate, 18 °C, ref. l
[12] = solvent 1-Propyl acetate, 18 °C, ref. l
[13] = solvent 2-Ethylhexanol-1, 100 °C, ref. w
[14] = solvent 2-Propyl acetate, 18 °C, ref. l
[15] = solvent Ethyl acetate, 18 °C, ref. l
[16] = solvent Ethylene glycol dimethyl (ether), 100 °C, ref. t
[17] = solvent Methyl acetate, 18 °C, ref. l
[18] = solvent Methyl butanoate, 18 °C, ref. l
[19] = solvent Methyl propanoate, 18 °C, ref. l
[20] = solvent Propionaldehyde, 100 °C, ref. k
[21] = solvent cell prints 'ether' (wrapped line), 100 °C, ref. v

## C#C [Acetylene]
[1]; [4]
  Xi x 10^4: 1224.0
[1]; [5]
  Xi x 10^4: 242.0
[1]; mol fraction, solvent Toluene, 20 °C
  Xi x 10^4: 246.7
[1]; mol fraction, solvent Toluene, 100 °C
  Xi x 10^4: 178.0
[1]; [6]
  Ci: 577.0 mmol/L
[1]; [7]
  Ci: 103.0 mmol/L
[1]; molarity, solvent Toluene, 20 °C
  Ci: 220.6 mmol/L
[1]; molarity, solvent Toluene, 100 °C
  Ci: 147.7 mmol/L
[2]; solvent Propanal
  Xi x 10^4: 402.0
  Ci: 557.7 mmol/L

## [C-]#[O+] [Carbon monoxide]
[3]; [8]
  Xi x 10^4: 10.96
[3]; [9]
  Xi x 10^4: 13.93
[1]; [4]
  Xi x 10^4: 11.3
[1]; [5]
  Xi x 10^4: 34.6
[1]; [6]
  Ci: 4.9 mmol/L
[1]; [7]
  Ci: 14.2 mmol/L

## CC [Ethane]
[3]; [10]
  Xi x 10^4: 214.00
  Ci: 201.89 mmol/L

## C=C [Ethylene]
[3]; [10]
  Xi x 10^4: 185.00
  Ci: 174.53 mmol/L
[1]; [4]
  Xi x 10^4: 134.0
[1]; [5]
  Xi x 10^4: 76.0
[1]; [6]
  Ci: 60.0 mmol/L
[1]; [7]
  Ci: 32.6 mmol/L
[2]; solvent Propanal
  Xi x 10^4: 115.0
  Ci: 159.6 mmol/L

## [HH] [Hydrogen]
[3]; [11]
  Xi x 10^4: 4.29
  Ci: 3.64 mmol/L
[3]; [12]
  Xi x 10^4: 4.15
  Ci: 3.99 mmol/L
[3]; [13]
  Xi x 10^4: 5.85
  Ci: 3.45 mmol/L
[3]; [8]
  Xi x 10^4: 8.55
[3]; [9]
  Xi x 10^4: 11.45
[3]; [14]
  Xi x 10^4: 4.83
  Ci: 4.64 mmol/L
[3]; [15]
  Xi x 10^4: 3.46
  Ci: 3.84 mmol/L
[3]; [16]
  Xi x 10^4: 6.20
  Ci: 5.32 mmol/L
[3]; [10]
  Xi x 10^4: 5.37
  Ci: 5.07 mmol/L
[3]; [17]
  Xi x 10^4: 2.51
  Ci: 3.30 mmol/L
[3]; [18]
  Xi x 10^4: 4.67
  Ci: 4.49 mmol/L
[3]; [19]
  Xi x 10^4: 3.77
  Ci: 4.19 mmol/L
[3]; [20]
  Xi x 10^4: 5.95
[3]; [21]
  Xi x 10^4: 6.58
  Ci: 3.89 mmol/L
[3]; solvent printed 2-Ethylhexanol-1 (second line), 100 °C, ref. v
  Xi x 10^4: 5.97
[1]; [4]
  Xi x 10^4: 5.1
[1]; [5]
  Xi x 10^4: 7.3
[1]; [6]
  Ci: 2.2 mmol/L
[1]; [7]
  Ci: 3.0 mmol/L
[2]; solvent d^8-Toluene
  Xi x 10^4: 3.5

## C [Methane]
[3]; [10]
  Xi x 10^4: 37.40
[3]; [20]
  Xi x 10^4: 20.90
